In PubChem BioAssay AID1259342 (Broad Institute, 2017):
Activity calls are given as the source filed them.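 Rule for the calls: active = fitted half-maximal inhibitory concentration AC50 at most ten times the top concentration tested; inconclusive = flat fit with 30 to 70% inhibition, or unusable fit; inactive = AC50 above ten times the top concentration.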

These compounds were tested against E3 ubiquitin-protein ligase TRIM62 (Homo sapiens) (UniProt Q9BVG3) (assay: TRIM62 E3 ligase activity on CARD9 – biochemical, ubiquitin ELISA, AlphaLISA TUBE, CARD9-TRIM62 disruptor project, dose response (AID 1259342;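 for AC50: potency is for inhibitors that reduce CARD9 ubiquitylation signal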)). Conditions: TRIM62-mediated CARD9 ubiquitylation, AlphaLISA TUBE detection.
Chain of E3 ubiquitin-protein ligase TRIM62 (Homo sapiens) (Q9BVG3 whole entry, looked up): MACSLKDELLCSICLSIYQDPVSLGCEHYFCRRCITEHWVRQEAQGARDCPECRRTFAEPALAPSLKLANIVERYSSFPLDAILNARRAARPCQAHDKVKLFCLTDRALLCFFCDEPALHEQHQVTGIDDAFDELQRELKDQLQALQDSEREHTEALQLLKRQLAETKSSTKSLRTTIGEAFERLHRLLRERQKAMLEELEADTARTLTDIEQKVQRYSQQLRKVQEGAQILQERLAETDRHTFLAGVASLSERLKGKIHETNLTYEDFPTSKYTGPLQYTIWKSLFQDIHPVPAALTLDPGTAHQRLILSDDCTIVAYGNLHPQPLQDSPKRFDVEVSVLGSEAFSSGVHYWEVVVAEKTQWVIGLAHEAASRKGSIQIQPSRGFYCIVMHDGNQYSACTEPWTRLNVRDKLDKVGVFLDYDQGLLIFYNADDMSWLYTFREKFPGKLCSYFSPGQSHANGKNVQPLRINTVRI
In the case of `O=C(Nc1nc(-c2ccco2)c(-c2ccco2)s1)c1ccc(F)cc1F`, the AC50 is reported as > 160 µM (inactive).
Work on `Nc1cc2c(cc1O)CCCC2` yielded an AC50 of 49.4 µM.
Compound `O=C(O)COc1ccc(-n2cccc2)cc1` has an AC50 of 14.7 µM.
For `Cc1ccc(Cc2cnc(N)s2)o1`, the AC50 was > 160 µM (inactive).
For `CC1=CCC(C(=O)O)C(C(=O)NC2CCCCC2)C1` (stereo not given), the AC50 was 47.4 µM.
`Nc1ccccc1Sc1nccc(C(F)(F)F)n1` was tested, and the AC50 was > 160 µM (inactive).
With `COc1ccc(F)c(CN2C[C@H]3CC[C@@H]2CN(Cc2cscn2)C3)c1` the AC50 was > 160 µM (inactive).
In the case of `Cc1cccc(NC(=O)Cc2coc3ccc4ccccc4c23)n1`, the AC50 is reported as 70 µM.
In the case of `O=C(COC(=O)c1cc(-c2cccs2)nc2ccccc12)NCc1ccco1`, the AC50 is reported as 26.2 µM.
`O=C(COc1cccnc1[N+](=O)[O-])c1ccc(Cl)s1` was tested, and the AC50 was 26.2 µM.
In the case of `Cc1nn2c(c1-c1ccccc1)NC(c1ccco1)=CC2c1ccco1` (stereo not given), the AC50 is reported as 13 µM.
In the case of `CCCC(=O)NCc1ccc2c(c1)cc(C)n2C`, the AC50 is reported as > 160 µM (inactive).
With `Cc1ccc(-c2nc(C)sc2CC(=O)NCc2ccco2)cc1` the AC50 was 56.6 µM.
`CC(C)(C)c1ccc(-c2nc(C#N)c(NCc3ccncc3)o2)cc1` showed an AC50 of 22.3 µM.
In the case of `O=C(COC(=O)c1ccc(S(=O)(=O)NCc2ccco2)cc1)Nc1ccc(Cl)cn1`, the AC50 is reported as 26.9 µM.
`COc1ccc(NC(=O)c2nc(Nc3ccccc3)c3ccccc3n2)cc1` was tested, and the AC50 was 67.8 µM.
For `Cc1cccc(Nc2nc(C(=O)Nc3cc(F)ccc3F)nc3ccccc23)c1`, the AC50 was 24.3 µM.
`Cc1cccc2nc(CSCc3ccco3)cn12` gave an AC50 of 78.2 µM.
With `N#Cc1c(N)oc(-c2ccco2)c1-c1ccco1` the AC50 was 29.6 µM.
In the case of `O=c1oc(/C=C/c2ccc([N+](=O)[O-])s2)nc2ccccc12`, the AC50 is reported as > 160 µM (inactive).
For `Cc1ccc(C)n1NC(=O)c1ccccc1O`, the AC50 was 13.5 µM.
`O=C1c2ccccc2-c2nc3ccccc3nc21` was tested, and the AC50 was > 160 µM (inactive).
Work on `COc1ccc(-c2ccc(CCC(=O)O)o2)cc1` yielded an AC50 of 18.1 µM.
Compound `CC1CCN(c2nc(-c3ccco3)c3c(c2C#N)CC(C)(C)OC3)CC1` has an AC50 of 17.6 µM.
With `O=C(O)c1ccccc1/C=N/NC(=O)c1cc(-c2ccco2)nc2ccccc12` the AC50 was 3 µM.
`CC(=O)Nc1ccc(Nc2nc(-c3nnc(-c4cccc(C)c4)o3)nc3ccccc23)cc1` was tested, and the AC50 was 19 µM.
Compound `Cc1noc(CN(C)C(=O)c2cc(-c3ccco3)nc3c(C)c(Cl)ccc23)n1` has an AC50 of 49.2 µM.
Compound `Cc1ccccc1C(=O)Nc1cnc(N2CCC(C(N)=O)(N3CCCCC3)CC2)c(C(=O)O)c1` has an AC50 of 9.03 µM.
With `CCN(CCNC(=O)C1CCN(S(=O)(=O)c2c(C)noc2C)CC1)c1ccccc1` the AC50 was > 160 µM (inactive).
For `O=C(NCc1ccco1)c1c2c(nc3ccccc13)CCC2`, the AC50 was 17.3 µM.
Compound `C=CC(=O)N1CCCC2(CCN(CCN3CCCC3)C2=O)C1` (stereo not given) has an AC50 of 50.8 µM.
For `O=C(Nc1nncs1)c1cc(-c2ccco2)nc2ccccc12`, the AC50 was 28.8 µM.
`NC(=O)C1(N2CCCCC2)CCN(c2ncc(NC(=O)c3ccc(Cl)cc3)cc2C(=O)O)CC1` gave an AC50 of 18.2 µM.
`CCc1cc2c(=O)n(Cc3ccco3)c(SC)nc2s1` was tested, and the AC50 was > 160 µM (inactive).
Compound `Cc1ccc(C(=O)Nc2cnc(N3CCC(C(N)=O)(N4CCCCC4)CC3)c(C(=O)O)c2)cc1` has an AC50 of 9.21 µM.
`COc1ccc(NC(=O)CN(C)C(=O)c2cc(-c3ccco3)nc3ccccc23)cc1` was tested, and the AC50 was 16.6 µM.

Same assay, conditions: TRIM62-mediated CARD9 ubiquitylation, AlphaLISA TUBE detection; at 38 µM (top of the series)
In the case of `Cc1ccc(C)n1Nc1nc(O)cs1`, the “activity change, negative = inhibition” value is reported as “inactive”.
For `CC(=O)c1ccc(NC(=O)c2noc3c2CCC3)cc1`, the “activity change, negative = inhibition” value was “inactive”.
In the case of `Cc1ccc(-c2nnc(-c3nc(Nc4nc5ccccc5s4)c4ccccc4n3)o2)cc1`, the “activity change, negative = inhibition” value is reported as “inactive”.
In the case of `O=C1NC(c2ccc(Br)cc2)Nc2sc3c(c21)CCC3` (stereo not given), the “activity change, negative = inhibition” value is reported as “inactive”.
`O=C(COC(=O)c1ccccc1Oc1ccccc1)NCc1ccco1` was tested, and the “activity change, negative = inhibition” value was “inactive”.

Same assay, conditions: TRIM62-mediated CARD9 ubiquitylation, AlphaLISA TUBE detection; at 80 µM (top of the series)
In the case of `NC(=O)c1ccc(CN2C(=O)C3(CCNCC3)Nc3ccccc32)cc1`, the “activity change, negative = inhibition” value is reported as “inactive”.
For `O=C1CC(c2ccco2)Cc2nc(N3CCc4ccccc4C3)ncc21` (stereo not given), the “activity change, negative = inhibition” value was “inactive”.
For `CC(CCc1ccco1)N(C)S(=O)(=O)c1ccc2[nH]c(=O)ccc2c1` (stereo not given), the “activity change, negative = inhibition” value was “inactive”.
For `Cc1scc(C(=O)NCc2ccco2)c1-c1ccccc1`, the “activity change, negative = inhibition” value was “inactive”.
With `Cc1cnc(C)c(N2CCN(C(=O)[C@H]3CC[C@@H](N)C3)CC2)n1` the “activity change, negative = inhibition” value was “inactive”.
With `O=[N+]([O-])c1c(NCCCO)cc(SCc2ccco2)c2nonc12` the “activity change, negative = inhibition” value was “inactive”.
In the case of `Fc1ccc(CSc2nnc(-c3cccnc3)n2Cc2ccco2)cc1`, the “activity change, negative = inhibition” value is reported as “inactive”.
`COc1ccc(S(=O)(=O)c2ccccc2)cc1NS(=O)(=O)c1cccc(C(=O)O)c1` was tested, and the “activity change, negative = inhibition” value was “inactive”.
`O=C(O)C(c1ccccc1)C(c1ccccc1)c1ccccc1` (stereo not given) was tested, and the “activity change, negative = inhibition” value was “inactive”.
With `N#Cc1sc2nc(-c3ccccc3)cc(-c3ccco3)c2c1N` the “activity change, negative = inhibition” value was “inactive”.
For `O=C(Nc1ccc2oc(-c3ccncc3)nc2c1)c1ccc2c(c1)OCO2`, the “activity change, negative = inhibition” value was “inactive”.
For `Cc1ncnc(N2CCC(c3nccn3Cc3cccnc3)CC2)c1C`, the “activity change, negative = inhibition” value was “inactive”.
In the case of `Cc1[nH]c2ccc(Cl)cc2c(=O)c1CN1CCCC1`, the “activity change, negative = inhibition” value is reported as “inactive”.
For `CN1C(=O)C(c2ccccc2[N+](=O)[O-])C(=O)c2ccccc21` (stereo not given), the “activity change, negative = inhibition” value was “inactive”.
For `CN(Cc1ccco1)S(=O)(=O)c1nnc(NC(=O)c2ccccc2)s1`, the “activity change, negative = inhibition” value was “inactive”.
With `CCOC(=O)/C=C/S(=O)(=O)c1ccc(NC(C)=O)cc1` the “activity change, negative = inhibition” value was “inactive”.
In the case of `NC(=O)C1(N2CCCCC2)CCN(c2ccc(NC(=O)c3ccccc3F)cc2C(=O)O)CC1`, the “activity change, negative = inhibition” value is reported as “inactive”.
In the case of `CCc1nccn1CCC(=O)N1C[C@H](CO)C[C@H](CN2CCCC2)C1`, the “activity change, negative = inhibition” value is reported as “inactive”.
In the case of `COc1ccc(CNC(=O)c2nc(Nc3ccc(C)cc3)c3ccccc3n2)cc1`, the “activity change, negative = inhibition” value is reported as “inactive”.
In the case of `O=C(CCCN1C(=O)NC2(CCCC2)C1=O)Nc1ccc(F)cc1`, the “activity change, negative = inhibition” value is reported as “inactive”.
With `CCc1oc2ccccc2c1C(=O)CCN1CCCCC1` the “activity change, negative = inhibition” value was “inactive”.
`CC(C)=CCC(C#N)(CC=C(C)C)C(=O)O` was tested, and the “activity change, negative = inhibition” value was “inactive”.
With `CCSCCNC(=O)c1cncc(Br)c1` the “activity change, negative = inhibition” value was “inactive”.
With `CCOC(=O)C1CCN(C(=O)CN(Cc2ccccc2)S(C)(=O)=O)CC1` the “activity change, negative = inhibition” value was “inactive”.
`Cn1ncc2c(NNC(=O)c3cc(O)cc(O)c3)ncnc21` was tested, and the “activity change, negative = inhibition” value was “inactive”.
With `O=C(O)c1ccccc1SC1CC(=O)N(Cc2ccccc2)C1=O` (stereo not given) the “activity change, negative = inhibition” value was “inactive”.
With `O=C(O)c1cc(-c2ccco2)nc2ccccc12` the “activity change, negative = inhibition” value was “inactive”.
For `O=C(Nc1ncccc1O)c1ccc(OCC2CCCO2)cc1` (stereo not given), the “activity change, negative = inhibition” value was “inactive”.
For `CCOc1ccccc1NC(=O)N1CCCC(c2nccn2CCOC)C1` (stereo not given), the “activity change, negative = inhibition” value was “inactive”.
For `C(=N\n1cnnc1SCc1ccccc1)/c1ccco1`, the “activity change, negative = inhibition” value was “inactive”.
`O=C(NCc1ccco1)c1ccc(S(=O)(=O)N2CCOCC2)cc1` was tested, and the “activity change, negative = inhibition” value was “inactive”.
For `CN(C)C(CN=C1NS(=O)(=O)c2ccccc21)c1ccco1` (stereo not given), the “activity change, negative = inhibition” value was “inactive”.
In the case of `Nc1ccc2ncccc2c1N`, the “activity change, negative = inhibition” value is reported as “inactive”.
In the case of `COCC(=O)N1CCCC2(CCN(CCN3CCCC3)C2=O)C1` (stereo not given), the “activity change, negative = inhibition” value is reported as “inactive”.
`O=C(NCc1cccnc1)c1ccccc1-c1nc(-c2ccccc2)no1` was tested, and the “activity change, negative = inhibition” value was “inactive”.
For `Cc1cc(C(=O)Nc2nc3c(s2)CCc2ccccc2-3)no1`, the “activity change, negative = inhibition” value was “inactive”.
`O=C(NCCc1ccccc1)c1cc2cccnc2n(Cc2ccccc2)c1=O` was tested, and the “activity change, negative = inhibition” value was “inactive”.
For `O=C1c2cccnc2C(=O)N1Cc1ccc(S(=O)(=O)NCc2ccco2)cc1`, the “activity change, negative = inhibition” value was “inactive”.
With `O=C(Cn1cncc1-c1ccc([N+](=O)[O-])cc1)Nc1ccccc1F` the “activity change, negative = inhibition” value was “inactive”.
In the case of `O=C(Nc1ccon1)c1cc2cccnc2n(Cc2ccccc2)c1=O`, the “activity change, negative = inhibition” value is reported as “inactive”.
`C[n+]1cccc2cccc(O)c21` was tested, and the “activity change, negative = inhibition” value was “inactive”.
In the case of `CCOc1ccc(CNc2nc(-c3nnc(-c4ccc(F)cc4)o3)nc3ccccc23)cc1`, the “activity change, negative = inhibition” value is reported as “inactive”.
For `COc1ccc(-c2nc(SCC(=O)N3CCN(c4ccccc4OC)CC3)n[nH]2)cc1`, the “activity change, negative = inhibition” value was “inactive”.
For `O=C1CC2(CCN(C(=O)Nc3ccccc3)CC2)CN1Cc1ccc(Cl)cc1`, the “activity change, negative = inhibition” value was “inactive”.
In the case of `N#Cc1c2ccc(OCC(=O)NCc3ccco3)cc2n2ccccc12`, the “activity change, negative = inhibition” value is reported as “inactive”.
For `CCCN1CCCn2nc(CNC(=O)[C@H]3CC[C@@H](N)C3)cc2C1`, the “activity change, negative = inhibition” value was “inactive”.
For `CCNc1ncc(C(=O)NCCc2nc3c(s2)CCCC3)cn1`, the “activity change, negative = inhibition” value was “inactive”.
In the case of `Cc1cc(C(=O)NCc2ccco2)on1`, the “activity change, negative = inhibition” value is reported as “inactive”.
With `N#Cc1c(-c2ccco2)cc(-c2ccccn2)nc1N` the “activity change, negative = inhibition” value was “inactive”.
